One data set has as its target T1, SARS-CoV-2 PL^pro (Severe acute respiratory syndrome coronavirus 2, UniProt P0DTD1).
T1 construct: made in house
As to conditions: PL^pro from SARS-CoV-2, ref 19 (Freire et al., 2021), cited from earlier work. The protocol:
Table 3 PL^pro activity by peptide analogs of p-BThTX-I at the concentration of 10 μM and IC50 values. Representative concentration–response inhibition curves against PL^pro from SARS-CoV-2 are presented in the Supplementary Material (Figure S7). | column: Inhibition (%) at 10 µM; IC50 μM

The test system of the next data set is S. aureus ATCC 25923. Nature of the data set: MIC/MBC, broth microdilution and subculture on CA-MH agar. Further details: key to Act (antibacterial activity): Bc, bactericidal; Bs, bacteriostatic. Type of data set: cell-based, Staphylococcus aureus. The protocol:
(§1) Bacterial isolates from the American Type Culture Collection (ATCC) were obtained from the Collection of Reference Bacteria on Health Surveillance, Oswaldo Cruz Foundation (FIOCRUZ) after phenotypic and molecular quality control and were registered at SISGEN under the number ADB556B. The minimum inhibitory concentration (MIC) was determined as previously described by Santos-Filho et al., 2021 [17], using the broth microdilution method. The MIC was the lowest concentration that inhibited microbial growth. […] MBC was defined as the lowest peptide concentration with no visible growth on the plate. […] The assay was performed in triplicate, and the values represent the mode of the obtained results.
(§2) Thus, to assess the relevance of the antimicrobial effect of p-Bth analogs, their Minimum Inhibitory Concentration (MIC) and Minimum Bactericidal Concentration (MBC) were analyzed against relevant bacteria. The evaluated strains were the Gram-positives: S. aureus ATCC 25923, S. epidermidis ATCC 35984, E. faecalis ATCC 29212, and E. faecium ATCC […] (Table 1); and the Gram-negatives: K. pneumoniae ATCC 700603, E. coli ATCC 25922, A. baumannii ATCC 19606, and P. aeruginosa ATCC 27853 (Table 2).

The test system of another data set is E. coli ATCC 25922. Described as above. Further details: key to Act (antibacterial activity): Bc, bactericidal; Bs, bacteriostatic. Type of data set: cell-based. As to the method: as §1, §2
The test system of data set [1] is S. epidermidis ATCC 35984. The description is as above. In kind it is cell-based. Further details: key to Act (antibacterial activity): Bc, bactericidal; Bs, bacteriostatic. As to the method:
as §1, §2

The next data set deals with E. faecalis ATCC 29212. The data set is described as above. In kind it is cell-based. Further details: key to Act (antibacterial activity): Bc, bactericidal; Bs, bacteriostatic. As to the method: as §1, §2
Another data set deals with A. baumannii ATCC 19606. The description is as above. In kind it is cell-based, Acinetobacter baumannii. The settings on record: triplicate, mode. As to the method: as §1, §2
In a further data set the test system is erythrocytes. Further details: method as in earlier work. The settings on record: at a concentration of 512 µg/mL; ref 17 (Santos-Filho et al., 2021); cited from earlier work.
In data set [2] the test system is K. pneumoniae ATCC 700603. Nature of the data set: MIC/MBC, broth microdilution and subculture on CA-MH agar. In kind it is cell-based, Klebsiella pneumoniae. As to conditions: broth microdilution, triplicate, mode. As to the method:
as §1, §2

Another data set relates to E. faecium ATCC 700221. Described as above. Type of data set: cell-based, Enterococcus faecium. The arrangement: key to Act (antibacterial activity): Bc, bactericidal; Bs, bacteriostatic. As to the method:
as §1, §2

Another data set relates to P. aeruginosa ATCC 27853. The data set is described as above. In kind it is cell-based, Pseudomonas aeruginosa. The settings on record: broth microdilution, triplicate, mode. As to the method: as §1, §2
In the next data set the test system is SARS-CoV-2. As to conditions: Vero cells; cited from earlier work. The text has this: In December 2019, the first case of viral infection with a new coronavirus was reported in China, which was later named severe acute respiratory syndrome coronavirus 2 (SARS-CoV-2), and the disease caused by this was named coronavirus-2019 or COVID-19 by the WHO. This disease has taken on great proportions, causing a pandemic scenario and great global concern. Even with the improvements in disease control, there is still a need for new, specific antiviral therapeutic options. As antimicrobial peptides also have antiviral action, the L-dimer, D-dimer and L-tetramer, in addition to ...

The nature of data set [3]: Carboxyfluorescein leakage, vesicle permeabilization. As to conditions: 80% POPE / 20% POPG vesicles; peptide 50 µM. As to the method: The permeabilization of lipid vesicles containing carboxyfluorescein was carried out using a spectrofluorometer model Fluorolog-3 FL3-122 from Horiba Jobin Yvon (Newark, NJ, USA) (dimers and tetramers) or in a spectrofluorometer model RF-1501 Shimadzu (Kyoto, Japan) (monomer). For RF-1501, the quantification of the fluorescence intensity was performed every 20 s. Two vesicle compositions were used: (1) 80% 1-palmitoyl-2-oleoyl-sn-glycero-3-phosphoethanolamine (POPE) and 20% 1-palmitoyl-2-oleoyl-sn-glycero- 3-phospho-(10-rac-glycerol) (POPG); and (2) 95% 1-palmitoyl-2-oleoyl-sn-glycero-3-phosphocholine (POPC) and 5% POPG. The percentage of leakage was obtained through the following equation:% release = (Fmeasured − Finitial)/(Ffinal − Finitial) × 100, where Ffinal is the average fluorescence value obtained after the addition of Triton, Finitial is the average of the initial values of the run before the addition of the peptide, and Fmeasured are the fluorescence values obtained at each point of the experiment.
Here, we evaluated two systems of membrane mimetics, including vesicles with a composition of 80% POPE and 20% POPG, and another with 95% POPC and 5% POPG. The first is widely used as a model of bacterial membranes, specifically of E. coli membrane. Membranes constituting POPC and POPG were used to mimic mammalian membranes due to the presence of choline-containing lipids in animal membranes.

Where [4] appears, read: MBC/MIC ratio >4 suggests bacteriostatic.
Setting [5] is: broth microdilution, triplicate, mode.
Setting [6] is: subculture on CA-MH agar, 37 °C, 24 h, triplicate, mode.

Results on one molecule are retold here after PMC9964244, “Effects of Dimerization, Dendrimerization, and Chirality in p-BthTX-I Peptide Analogs on the Antibacterial Activity and Enzymatic Inhibition of the SARS-CoV-2 PL^pro Protein” (Pharmaceutics, 2023).

Values after ≈ are worked out from the molar mass of the structure shown. Values joined by “and” are separate entries in the source; they are usually repeats but may differ in a detail not shown here. Identical values can stand only once. Bridge positions count the residues as written; N and C are the ends. Peptide text beside a SMILES is read from it. I, II: the chains in the order shown.

Take `CC(C)C[C@H](NC(=O)[C@H](Cc1c[nH]cn1)NC(=O)[C@H](Cc1ccc(O)cc1)NC(=O)[C@H](CCCNC(=N)N)NC(=O)[C@H](Cc1ccc(O)cc1)NC(=O)[C@H](CCCCN)NC(=O)[C@@H](N)CCCCN)C(=O)N[C@@H](CCCCN)C(=O)N1CCC[C@H]1C(=O)N[C@@H](Cc1ccccc1)C(=O)NCCCC[C@H](NC(=O)[C@H](Cc1ccccc1)NC(=O)[C@@H]1CCCN1C(=O)[C@H](CCCCN)NC(=O)[C@H](CC(C)C)NC(=O)[C@H](Cc1c[nH]cn1)NC(=O)[C@H](Cc1ccc(O)cc1)NC(=O)[C@H](CCCNC(=N)N)NC(=O)[C@H](Cc1ccc(O)cc1)NC(=O)[C@H](CCCCN)NC(=O)[C@@H](N)CCCCN)C(N)=O` [L-dimer, [des-Cys^11,Lys^12,Lys^13-(p-BthTX-I)2K]] (I: H-KKYRYHLKPFK-NH2 / II: H-KKYRYHLKPF; amide I:11-II:C; N-terminus assumed): at SARS-CoV-2 PL^pro (peptide 10 µM), the “Inhibition (%) at 10 µM” value is on record as 98.05 ± 1.62%. For the same molecule, on SARS-CoV-2 PL^pro, the half-maximal inhibitory concentration (IC50) is 2.4 ± 0.1 µM. Besides, the “Act (antibacterial activity)” value is “Bc” in the data set with S. aureus ATCC 25923 (setting [4]); “Bc” in the data set with E. coli ATCC 25922 (setting [4]); “Bc” in [1] (setting [4]); “Bc” in the data set with E. faecalis ATCC 29212 (setting [4]); “Bs” in the data set with E. faecium ATCC 700221 (setting [4]). Further, the minimal inhibitory concentration (MIC) in the data set with S. aureus ATCC 25923 (setting [5]) was 32 μg/mL and 11 µM; against E. coli ATCC 25922 (setting [5]) it was 32 μg/mL and 11 µM; in [1] (setting [5]), 8 μg/mL and 2 µM; in the data set with E. faecalis ATCC 29212 (setting [5]), 22 µM and 64 μg/mL; with A. baumannii ATCC 19606 (broth microdilution), 89 µM and 256 μg/mL; in data set [2] it was >128 μg/mL and >44 µM. The MIC in the data set with E. faecium ATCC 700221 (setting [5]) was 16 μg/mL and 5 µM; in the data set on P. aeruginosa ATCC 27853 it was >512 μg/mL and >178 µM. The MBC is 128 µg/mL (≈ 44.6 µM) against S. aureus ATCC 25923 (setting [6]); 64 µg/mL (≈ 22.3 µM) in the data set with E. coli ATCC 25922 (setting [6]); 16 µg/mL (≈ 5.58 µM) in [1] (setting [6]); 128 µg/mL (≈ 44.6 µM) in the data set with E. faecalis ATCC 29212 (setting [6]); above 512 µg/mL in the data set with A. baumannii ATCC 19606 (subculture on CA-MH agar, 37 °C, 24 h); above 64 µg/mL in the data set on E. faecium ATCC 700221 (setting [6]). Further, the hemolysis rate result in the data set on erythrocytes is “below 5%”. Further, in the data set with SARS-CoV-2, the “percentage inhibition of SARS-CoV-2 infection” value is 27%. In addition, in [3], the “carboxyfluorescein leakage, maximum percentage” value worked out at 15%.
